Tests used:
[1] = In-vitro drug release / drug entrapment efficiency in PBS by UV spectroscopy at 278 nm; format: physicochemical
Method: 30 mg of CHL-loaded nanoparticles were dispersed and homogenized in 100 mL of PBS, pH 7.4 (purchased from Sigma Aldrich) which releases all entrapped CHL from the nanocomposite. Before homogenization, nanocomposite formulation was cleared from free drug molecules by washing with distilled water. Ultraviolet (UV) spectroscopy at a wavelength of 278 nm was employed for completely developing entire content of entrapped chloramphenicol in triplicates. A solution of drug-free nanocomposite (30 mg) in distilled water was employed as a reference, thus reducing the chances of interference by excipients and polymer used to prepare the nanocomposite. Following equation was utilized to evaluate drug entrapment efficiency (DEE) value, as was reported in a paper by Harilall S, Choonara Y E. et al. %DEE=D1/D2*100 Where D1 is the actual quantity of drug (mg/100 mL) and D2 is the theoretical quantity of drug (mg/100 mL) entrapped within the formulation. Precision of the results was made certain by calculating the average DEE of five samples.
An in-vitro drug release study was conducted on the basis of a paper reported by Harilall S, Choonara Y E. et al. for the zidovudine release study. CHL-loaded nanocomposite, nanocomposite and commercially available CHL were submerged in 100 mL PBS discretely and then sited these set of preparations in an orbital shaking incubator (20 rpms, 37° C.). Portions of these preparations were taken at altered time interims for 48 hours and substituted by equal quantities of buffer solution and were evaluated by UV spectroscopy for CHL absorption at a wavelength of 278 nm.

Gram positive sarccina = test: Anti-bacterial activity, agar well zone of inhibition; format: cell-based; conditions: 50 μL of 5 mg/mL suspension in 0.4 cm wells, 37° C. for 48 hours
Method: (§1) Nutrient broth was prepared by dissolving 0.2 g in 25 mL distilled water in erlenmeyer flask. The flask was then sterilized in an autoclave at the 121° C. for 15 minutes after applying cotton plug to cover its mouth. This growth media was utilized to prepare inoculums of all strains of bacteria. After adding a loop full of bacterial strain in it, the flask was placed in shaking incubator at 37° C. for the night. The plates were inoculated after the incubated broth was diluted up to 10^−2.
(§2) 0.8 g nutrient broth and 2 g of agar were added to 100 mL autoclaved water in an erlenmeyer flask. Apply cotton plug to the flask and then sterilize it in an autoclave at the 121° C. for 15 minutes. Each petri plate was poured with 15-20 mL of agar which was then solidified and inoculated with the bacterial strain. 50 μL of sample suspension was poured in wells that have the diameter of 0.4 cm. All sample suspensions were made by adding 5 mg of product in 1 mL distilled water. Zones of inhibition were observed after keeping these plates at 37° C. for 48 hours.

[2] = test system: Gram positive Streptococci; test: as above; format: cell-based; conditions: 50 μL of 5 mg/mL suspension in 0.4 cm wells, 37° C. for 48 hours
Method: as §1, §2

[3] = test system: Gram positive cocci (Separate); test: as above; format: cell-based; conditions: 48 h
Method: as §1, §2

Compound: O=C(N[C@H](CO)[C@H](O)c1ccc([N+](=O)[O-])cc1)C(Cl)Cl [CHL, chloramphenicol]
- Time in which almost the whole drug is released ([1]; PBS): 3 to 4 h
- DEE (FIG. 7, in-vitro drug release) ([1]; first hour of exposure to PBS, 37° C.): 91%
- DEE (FIG. 7, in-vitro drug release) ([1]; fourth hour in PBS (third of the next three hours)): 97%
- DEE (FIG. 7, in-vitro drug release) ([1]; second hour in PBS (first of the next three hours)): 94%
- DEE (FIG. 7, in-vitro drug release) ([1]; third hour in PBS (second of the next three hours)): 97%
- zone of inhibition at 5000 µg/mL (Gram positive sarccina): 2 mm
- zone of inhibition at 5000 µg/mL [2]: 6 mm
- zone of inhibition at 5000 µg/mL [3]: 4 mm

— patent publication US9393313B2, “Drug entrapment efficiency and sustained drug release of chloramphenicol loaded polymeric-iron nanoparticles” (priority 2014, dated 2016)
